Assay results published in patent US6900026B2, “Methods for identifying compounds as antioxidants” (priority 1996, dated 2005).

Assays:
[1] = system: Sod2CJE(−/−) mice; test: Survival (lifespan) of Sod2CJE(−/−) mice given daily intraperitoneal test compound; format: in vivo, mouse; details: for mean life-span: Sod2CJE(−/−) pups, Euk-8 daily 30 mg/kg, MnTBAP-treated pups
Description: Mice lacking functional MnSOD have been described by Li et al. (1995) Nature Genetics 11:376-381, incorporated herein by reference. The genotypes of one-day-old pups are determined by genetic analysis of tissue surgically excised from the toe or tail tip (2-3 mm). In these mice the third exon of the Sod2 gene has been deleted, thus, destroying the ability to synthesize an active mitochondrial MnSOD.
Litters were grouped into two sizes: large, >6 pups/litter of mutant, heterozygous and normal pups; and small, ≦6 Sod2CJE(−/−) pups/litter, in which the wild type and heterozygous pups were removed at three days of age to ensure that the homozygous mutant pups had unrestricted access to food and nurturing.
(§1) In most experiments, MnTBAP was prepared for injection by dissolving in 0.1 M NaOH, diluted with sterile water to a dosage level of 5 mg MnTBAP/kg, and administered by daily intra-peritoneal (IP) injections of between 10 and 45 μl, 2 hours post weighing, from 3 days of age. In addition to homozygous mutant animals, both heterozygotes and wild-type animals were injected to serve as controls. Wild-type or heterozygous Sod2CJE pups were sacrificed at the same age as Sod2CJE(−/−) pups to serve as controls.
Mouse pups are injected intraperitoneally with test compounds with a 50 microliter Hamilton syringe and a 31 G needle. The maximum volume administered to pups younger than 6 days of age is 20 μl. Injections are given daily, at the same time per day ±2 hours.
The MnTBAP stock solution is diluted down to the administered dose, which is dependent on body weight. For MnTBAP, the dosage is 5 mg/kg per day. Pups are weighed daily to allow calculation of the appropriate dosage.
Survival analysis was carried out by examining the animals daily to determine mortality, and entering the results into a life-table in the program Statistica (Statsoft, Tulsa, Okla.). Comparison between groups was carried out using the Kaplan and Meier survival function, non-parametric t-tests, and the Gehans Wilcoxon statistic from within the program to compare groups.
In general, experiments are carried out with Sod2CJE(−/−) mice, starting at 3 days of age, and the mice are weighed and divided into test and control groups. Test mice receive the compound for which evaluation as an antioxidant is desired at a dosage which is below the level of toxicity. Unless otherwise indicated, the test compound is administered in a pharmaceutically acceptable carrier by the intraperitoneal route. Unless otherwise determined to be advantageous, the test compound is administered at the same time each day (±2 hours).

[2] = system: Sod2CJE(−/−) animals; test: Lipid in liver by Oil red-O staining, treated Sod2CJE(−/−) animals; format: in vivo, mouse; design: key to Lipid Mode (score): 0=no observable lipid in sections; 1=mild diffuse speckled distribution of lipid; 2=more intense speckled pattern; 3=coalescence of small lipid droplets into large intercellular droplets; 4=massive intercellular lipid droplet accumulation; details: for accumulation of lipid in the liver: treated MnSOD-deficient homozygotes, qualitative; for Lipid % Control / Lipid Mean (score) / Lipid Mode (score): MnTBAP treated Sod2CJE(−/−); for Lipid % Control: control = untreated (−/−) 6-10 days; for Lipid Mean (score) / Lipid Mode (score): score 0-4
Excerpt: (see also Table 2). […] The level of lipid in liver sections was scored as follows: 0=no observable lipid in sections, 1=mild diffuse speckled distribution of lipid, 2=more intense speckled pattern, 3=coalescence of small lipid droplets into large intercellular droplets, and 4=massive intercellular lipid droplet accumulation. Wild-type or heterozygotes treated with MnTBAP for 3 weeks had no observable difference in the morphology of the liver compared to untreated controls (+/+or +/−). The livers of 25 MnTBAP treated Sod2CJE(−/−) animals were examined at 12, 14 and 17 days of age (Table 2) and compared with treated wild type animals.
Assessment of the effect of MnTBAP treatment on liver morphology was carried out by blind assessment of wild-type and heterozygous animals chronically treated with compound for 3 weeks. Hematoxylin and Eosin stained sections from 27 treated homozygous normal (+/+) and heterozygous (+/−) animals were compared with 2 untreated control animals. To evaluate lipid in the liver of treated homozygous mutant MnSOD(−/−) animals, 8 u frozen sections were prepared and stained with Oil red O [Li et al. (1995) supra]. Each section was evaluated for the quantity and size of lipid droplets by arbitrarily scoring with a numerical value (Table 2). The ratings of multiple animals were then averaged.

[3] = system: Sod2CJE(−/−) animals; test: Behavioral analysis and neuropathology of treated Sod2CJE(−/−) animals; format: in vivo; details: for neurological and behavioral phenotype: treated Sod2CJE(−/−) mice
Description: Treated Sod2CJE(−/−) animals were observed daily from 10 days through to greater than five weeks for behavioral abnormalities compared to litter mate controls. Daily video recordings of up to 10 minutes were made to longitudinally track the development of behavioral changes. A total of 187 video recordings were made of 63 animals from 10 to 23 days of age.
For pathology, the brains were removed from the sacrificed animals and fixed in 10% buffered formalin for up to 7 days. They were then processed, embedded, and sectioned. In some cases representative sections were made every 20 sections or so at 7 microns thickness throughout the brain and stained with hematoxylin and eosin for examination by light microscopy. In other cases, the entire brain was sectioned at 8 microns throughout. Fifteen Sod2CJE(−/−) brains between 11 and 23 days of age were examined by hematoxylin and eosin staining and light microscopy in coronal, sagittal, or horizontal orientations with 17 controls in a blinded study (4 heterozygotes and 6 wild-types treated; and 2 heterozygotes and 5 wild-types untreated).
During the course of an experiment, each mouse is evaluated daily for weight, lethargy, lack of appetite, its vital signs and for any indication of neurological disorders (observed for circling behavior, dystonia, trembling or the like. Video records can be made for later evaluation, for example for side-by-side comparisons or for observing changes over time. Cardiac histopathology and central nervous system tissue analysis are carried out after death of the animal or after sacrifice of the animal.

[4] = system: succinate dehydrogenase (SDH, Complex II); test: Histochemical staining of succinate dehydrogenase (SDH, Complex II) in tissue of treated MnSOD-deficient homozygotes; format: in vivo, mouse
Excerpt: Fat accumulates in the liver, where it can be detected by Oil Red O staining. […] By contrast, in Euk-8 treated animals both the lipid accumulation in the liver and SDH inhibition are rescued.

[5] = system: Sod2CJE(−/−) animals; test: Cardiac measurements and histology in treated Sod2CJE(−/−) animals; format: in vivo, mouse; details: 20-21 days of age
Description: Cardiac dimensions were measured at 21 days of age for wild-type and heterozygous animals. These were compared with homozygous mutant animals treated with MnTBAP as described [Li et al. (1995) supra].

[6] = system: control animals (+/+, +/−); test: Pathology of liver, brain and heart in treated control animals (+/+, +/−); format: in vivo, mouse; details: control animals (+/+, +/−) treated with MnTBAP
Description: as §1
For pathology, the brains were removed from the sacrificed animals and fixed in 10% buffered formalin for up to 7 days. They were then processed, embedded, and sectioned. In some cases representative sections were made every 20 sections or so at 7 microns thickness throughout the brain and stained with hematoxylin and eosin for examination by light microscopy. In other cases, the entire brain was sectioned at 8 microns throughout. […]
Assessment of the effect of MnTBAP treatment on liver morphology was carried out by blind assessment of wild-type and heterozygous animals chronically treated with compound for 3 weeks. […] Each section was evaluated for the quantity and size of lipid droplets by arbitrarily scoring with a numerical value (Table 2). […]

[7] = Transmission of orally administered compound to the milk of nursing mothers; format: in vivo, mouse
Excerpt: The skilled artisan understands how to test a particular compound for its toxicity in a particular mammal, for its ability to cross the blood-brain barrier and for its ability to enter the bloodstream and/or the cerebrospinal fluid. Preferred compounds are those which readily enter circulation and the central nervous system so that maximum amelioration of any disorder or disease resulting from oxidative damage, especially from superoxide radical.

[8] = in vitro; cited from earlier work
[9] = system: cells; details: in vitro; cited from earlier work
[10] = mice, after the barrier is established at about 7-12 days of age; cited from earlier work
[11] = SOD2−/− mice treated with free radical scavenging compounds (Table 4)
[12] = Sod2CJE(−/−), Large litter size (>6 pups), with MnTBAP, N=16
[13] = Sod2CJE(−/−), Small litter size (≦6 pups), with MnTBAP, N=15
[14] = Sod2CJE(−/−), all litter sizes, with MnTBAP 5 mg/kg daily IP, N=31, days of age

[Cl-].[Mn+3].[O-]c1ccccc1C=NCCN=Cc1ccccc1[O-] [Euk-8]
Mean Lifespan [1, 11]: 22 days
mean life-span [1]: 22 days
accumulation of lipid in the liver [2]: rescued
crossing of the blood brain barrier ([3]; concluded from beneficial effects on neuronal function in Sod2CJE(−/−) mouse): crosses the blood brain barrier
neurological and behavioral phenotype [3]: rescue of the neurological and behavioral phenotype
spongiform encephalopathy ([3]; treated Sod2CJE(−/−) mouse, at 17 days): absent
tissue SDH inhibition [4]: rescued

O=C(O)c1ccc(-c2c3nc(c(-c4ccc(C(=O)O)cc4)c4ccc([nH]4)c(-c4ccc(C(=O)O)cc4)c4nc(c(-c5ccc(C(=O)O)cc5)c5ccc2[nH]5)C=C4)C=C3)cc1.[Mn] [MnTBAP, Manganese 5,10,15,20-tetrakis(4-benzoic acid) porphyrin]
mean age of survival ([1]; MnSOD(−/−) mice, 5 mg/kg daily intraperitoneal, all litters, n=31, ±SD): 16.4 ± 5.8 days
proportion of mice that lived to greater than or equal to 20 days of age ([1]; MnSOD(−/−) mice, 5 mg/kg daily intraperitoneal, n=31): 70%
Mean Lifespan [1, 11]: 14 days
mean life-span [1]: 16 days
Mean Lifespan [1, 12]: 16.1
Median (lifespan) [1, 12]: 21
Mean Lifespan [1, 13]: 16.6
Median (lifespan) [1, 13]: 19
Mean Lifespan [1, 14]: 16.4
Median (lifespan) [1, 14]: 20
mean age of survival ([1]; litters of more than six pups (unrestricted), ±SD): 16.1 ± 6.6 days
mean survival ([1]; litters with six or less pups (restricted), ±SD): 11.4 ± 4.8 days
proportion of treated Sod2CJE(−/−) animals with liver lipid levels comparable to untreated Sod2CJE(−/−) animals of 6-10 days ([2]; 25 treated animals examined at 12, 14 and 17 days of age (2/25)): 8%
Lipid % Control ([2]; 12 days old, n=9): 23%
Lipid Mean (score) ([2]; 12 days old, n=9): 0.9
Lipid Mode (score) ([2]; 12 days old, n=9): 0
Lipid % Control ([2]; 14 days old, n=8): 23%
Lipid Mean (score) ([2]; 14 days old, n=8): 0.9
Lipid Mode (score) ([2]; 14 days old, n=8): 0.5
Lipid % Control ([2]; 17 days old, n=8): 40%
Lipid Mean (score) ([2]; 17 days old, n=8): 1.6
Lipid Mode (score) ([2]; 17 days old, n=8): 2
accumulation of lipid in the liver [2]: reduced
effect on cardiac defect (dilated cardiomyopathy) [5]: prevented the cardiac defect
neurological and behavioral phenotype [3]: progressive motor impairment
toxicity (pathological changes in liver or brain) [6]: not toxic
tissue SDH inhibition [4]: still inhibited
transmission to the milk of nursing mothers [7]: insufficient transmission
superoxide-degrading activity relative to Sod1/Sod2 when compared by weight [8]: about 10%
permeability to cells [9]: permeable to cells
crossing of the blood-brain barrier [10]: does not cross the blood-brain barrier
